Data on 1 molecule can be found in ChEMBL document CHEMBL1135294, “Synthesis of a molecular mimic of the Glc1Man9 oligoside as potential inhibitor of calnexin binding to DeltaF508 CFTR protein” (Bioorg Med Chem Lett, 2002).

The assay has as its target T1, Calnexin (Homo sapiens, UniProt P27824).
T1 sequence (P27824 whole entry): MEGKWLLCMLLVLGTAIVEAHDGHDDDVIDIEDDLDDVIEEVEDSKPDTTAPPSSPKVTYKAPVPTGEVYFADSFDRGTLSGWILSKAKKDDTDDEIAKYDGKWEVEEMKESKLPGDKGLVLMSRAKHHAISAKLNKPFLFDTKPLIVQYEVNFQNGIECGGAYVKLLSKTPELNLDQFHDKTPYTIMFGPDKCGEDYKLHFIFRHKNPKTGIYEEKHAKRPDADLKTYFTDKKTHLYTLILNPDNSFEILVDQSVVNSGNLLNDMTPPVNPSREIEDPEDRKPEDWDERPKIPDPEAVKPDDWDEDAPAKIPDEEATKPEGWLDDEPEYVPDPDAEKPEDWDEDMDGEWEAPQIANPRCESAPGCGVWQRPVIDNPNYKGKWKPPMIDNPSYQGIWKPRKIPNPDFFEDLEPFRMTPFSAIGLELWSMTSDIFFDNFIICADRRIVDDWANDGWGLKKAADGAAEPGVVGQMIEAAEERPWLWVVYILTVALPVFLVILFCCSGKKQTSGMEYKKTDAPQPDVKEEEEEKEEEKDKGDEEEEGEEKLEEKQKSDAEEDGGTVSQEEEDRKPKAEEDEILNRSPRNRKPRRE
As to the kind of experiment: Compound was tested for its ability to inhibit binding of [3H]- Glc1Man9 GlcNAc2 to GST-fused calnexin immobilized on glutathione-agarose.

Molecules are shown by their SMILES.

The term IC50 denotes the concentration that gives 50% inhibition. Higher therefore signals weaker potency. `O=C(NCC(CNC(=O)OCCNC(=O)O[C@H]1O[C@@H](CO)[C@@H](O)[C@H](O)[C@H]1O)OC(=O)NC(O)NC(=O)OCCOCCNC(=O)O[C@H]1C[C@@H](CO)[C@@H](O)[C@H](O[C@H]2O[C@@H](CO)[C@@H](O)[C@H](O)[C@@H]2O)[C@H]1O)OCCNC(=O)O[C@H]1O[C@@H](CO)[C@@H](O)[C@H](O)[C@H]1O` (stereo partly specified) gave an IC50 of 300 µM.
